From the supplement of paper PMC11208160 come the findings set out here.

The data set in a line: recombinant UMI read abundance after kanamycin selection (control-corrected) (log10(CPM+1)); higher = more efficient recombination; extreme values may be limits of the assay; sequences stand for … in AGTGCAGAGAAAATCGGCCAGTTTTCTCTGCCTGCAGTCCGCATGCCGTGGGACCCCTTGGGTTCTAACCTGTTGCCTAGATTTATGCAGCGGACTGCCTTTCTCCCAAAGTGATAAACCGG…AGGTTGGTTTCACT; site = the 11-nt donor. In short, it runs like this:
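Under IPTG (0.07 mM) plus kanamycin, or without selection, Escherichia coli carrying a UMI-tagged donor and donor-binding-loop pair library and a target plasmid for the IS621 bridge recombinase were plated in two replicates. Recombinant UMIs were PCR-amplified across the donor–target junction and sequenced. Counts were converted to CPM, averaged over replicates, scaled by control-derived factors and reported as log10(CPM+1).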
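Note: IS621 bridge recombinase in Escherichia coli cells against a fixed T5 target plasmid.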

Turning to “TGGACACCATGGACCGGTTTTCCCGGTAATCCGTATTTGAC (site TGGACACCTGT)”, the “recombinant UMI read abundance (log10)” value was found to be 0.

Consider “TGGACACCATGGACCGGTTTTCCCGGTAATCCGTATTTGAC (site TGTACACCTGT)”, for which the “recombinant UMI read abundance (log10)” value stood at 0.

For the sequence “TGGAGTGCATGGACCGGTTTTCCCGGTAATCCGTATTTGAC (site TGGAGTGCTGT)”, the “recombinant UMI read abundance (log10)” value stood at 2.21.

Consider “TGGATACCATGGACCGGTTTTCCCGGTAATCCGTATTTGTT (site TGGATACCTAA)”, for which the “recombinant UMI read abundance (log10)” value came to 0.

Regarding “TGGATGACATGGACCGGTTTTCCCGGTAATCCGTATTTGCA (site AGGAAGACTTG)”, the “recombinant UMI read abundance (log10)” value amounted to 0.54.

Regarding “TGGATGACATGGACCGGTTTTCCCGGTAATCCGTATTTGCA (site TGGATGACTTG)”, the “recombinant UMI read abundance (log10)” value came out at 2.44.

Consider “TGGATGTCATGGACCGGTTTTCCCGGTAATCCGTATTTGAA (site TGGATGTCTTT)”, for which the “recombinant UMI read abundance (log10)” value is 2.11.

On to “TGGCAAGCATGGACCGGTTTTCCCGGTAATCCGTATTTGTC (site TGGCAAGCTGA)”, for which the “recombinant UMI read abundance (log10)” value amounted to 0.

“TGGCCCGCATGGACCGGTTTTCCCGGTAATCCGTATTTGGC (site TGGCCAGCTGC)”: the “recombinant UMI read abundance (log10)” value stood at 0.

“TGGCCCGCATGGACCGGTTTTCCCGGTAATCCGTATTTGGC (site TGGCCCGCTGC)”: the “recombinant UMI read abundance (log10)” value was 0.649.

With “TGGCCCGCATGGACCGGTTTTCCCGGTAATCCGTATTTGGC (site TGGCCGGCTGC)”, the “recombinant UMI read abundance (log10)” value turned out to be 0.

Take “TGGCCCGCATGGACCGGTTTTCCCGGTAATCCGTATTTGGC (site TGGCCTGCTGC)”: the “recombinant UMI read abundance (log10)” value worked out at 0.

Consider “TGGCCGACATGGACCGGTTTTCCCGGTAATCCGTATTTGGG (site TGGCCGACTCC)”, for which the “recombinant UMI read abundance (log10)” value was 0.

With “TGGCCGCCATGGACCGGTTTTCCCGGTAATCCGTATTTGGC (site TGGCCGACTGC)”, the “recombinant UMI read abundance (log10)” value is 0.0204.

With “TGGCCGCCATGGACCGGTTTTCCCGGTAATCCGTATTTGGC (site TGGCCGCCTGC)”, the “recombinant UMI read abundance (log10)” value came out at 0.

Regarding “TGGCCGCCATGGACCGGTTTTCCCGGTAATCCGTATTTGGC (site TGGCCGGCTGC)”, the “recombinant UMI read abundance (log10)” value is 0.

Consider “TGGCCGCCATGGACCGGTTTTCCCGGTAATCCGTATTTGGC (site TGGCCGTCTGC)”, for which the “recombinant UMI read abundance (log10)” value amounted to 0.

In the case of “TGGCCGGCATGGACCGGTTTTCCCGGTAATCCGTATTTGGC (site AGGCCGGCTGC)”, the “recombinant UMI read abundance (log10)” value was determined as 0.

“TGGCCGGCATGGACCGGTTTTCCCGGTAATCCGTATTTGGC (site CGGCCGGCTGC)”: the “recombinant UMI read abundance (log10)” value came out at 0.

“TGGCCGGCATGGACCGGTTTTCCCGGTAATCCGTATTTGGC (site GGGCCGGCTGC)”: the “recombinant UMI read abundance (log10)” value was determined as 0.

In the case of “TGGCCGGCATGGACCGGTTTTCCCGGTAATCCGTATTTGGC (site TAGCCGGCTGC)”, the “recombinant UMI read abundance (log10)” value is 0.

Turning to “TGGCCGGCATGGACCGGTTTTCCCGGTAATCCGTATTTGGC (site TCGCCGGCTGC)”, the “recombinant UMI read abundance (log10)” value is 0.

With “TGGCCGGCATGGACCGGTTTTCCCGGTAATCCGTATTTGGC (site TGACCGGCTGC)”, the “recombinant UMI read abundance (log10)” value is 0.

“TGGCCGGCATGGACCGGTTTTCCCGGTAATCCGTATTTGGC (site TGCCCGGCTGC)”: the “recombinant UMI read abundance (log10)” value came to 0.

On to “TGGCCGGCATGGACCGGTTTTCCCGGTAATCCGTATTTGGC (site TGGACGGCTGC)”, for which the “recombinant UMI read abundance (log10)” value was determined as 0.

On to “TGGCCGGCATGGACCGGTTTTCCCGGTAATCCGTATTTGGC (site TGGCAGGCTGC)”, for which the “recombinant UMI read abundance (log10)” value was 0.

With “TGGCCGGCATGGACCGGTTTTCCCGGTAATCCGTATTTGGC (site TGGCCAGCTGC)”, the “recombinant UMI read abundance (log10)” value is 0.

As to “TGGCCGGCATGGACCGGTTTTCCCGGTAATCCGTATTTGGC (site TGGCCCGCTGC)”, the “recombinant UMI read abundance (log10)” value was found to be 0.

As to “TGGCCGGCATGGACCGGTTTTCCCGGTAATCCGTATTTGGC (site TGGCCGACTGC)”, the “recombinant UMI read abundance (log10)” value was found to be 0.

For the sequence “TGGCCGGCATGGACCGGTTTTCCCGGTAATCCGTATTTGGC (site TGGCCGCCTGC)”, the “recombinant UMI read abundance (log10)” value was determined as 0.

Consider “TGGCCGGCATGGACCGGTTTTCCCGGTAATCCGTATTTGGC (site TGGCCGGCTAC)”, for which the “recombinant UMI read abundance (log10)” value is 0.0414.

For the sequence “TGGCCGGCATGGACCGGTTTTCCCGGTAATCCGTATTTGGC (site TGGCCGGCTCC)”, the “recombinant UMI read abundance (log10)” value came out at 0.0175.

Consider “TGGCCGGCATGGACCGGTTTTCCCGGTAATCCGTATTTGGC (site TGGCCGGCTGA)”, for which the “recombinant UMI read abundance (log10)” value was 0.

In the case of “TGGCCGGCATGGACCGGTTTTCCCGGTAATCCGTATTTGGC (site TGGCCGGCTGC)”, the “recombinant UMI read abundance (log10)” value came to 0.862.

For “TGGCCGGCATGGACCGGTTTTCCCGGTAATCCGTATTTGGC (site TGGCCGGCTGG)”, the “recombinant UMI read abundance (log10)” value came to 0.

In the case of “TGGCCGGCATGGACCGGTTTTCCCGGTAATCCGTATTTGGC (site TGGCCGGCTGT)”, the “recombinant UMI read abundance (log10)” value worked out at 0.

“TGGCCGGCATGGACCGGTTTTCCCGGTAATCCGTATTTGGC (site TGGCCGGCTTC)”: the “recombinant UMI read abundance (log10)” value was 0.00718.

For the sequence “TGGCCGGCATGGACCGGTTTTCCCGGTAATCCGTATTTGGC (site TGGCCGTCTGC)”, the “recombinant UMI read abundance (log10)” value turned out to be 0.

On to “TGGCCGGCATGGACCGGTTTTCCCGGTAATCCGTATTTGGC (site TGGCCTGCTGC)”, for which the “recombinant UMI read abundance (log10)” value was 0.

For “TGGCCGGCATGGACCGGTTTTCCCGGTAATCCGTATTTGGC (site TGGCGGGCTGC)”, the “recombinant UMI read abundance (log10)” value stood at 0.

For “TGGCCGGCATGGACCGGTTTTCCCGGTAATCCGTATTTGGC (site TGGCTGGCTGC)”, the “recombinant UMI read abundance (log10)” value worked out at 0.

For “TGGCCGGCATGGACCGGTTTTCCCGGTAATCCGTATTTGGC (site TGGGCGGCTGC)”, the “recombinant UMI read abundance (log10)” value came out at 0.

On to “TGGCCGGCATGGACCGGTTTTCCCGGTAATCCGTATTTGGC (site TGGTCGGCTGC)”, for which the “recombinant UMI read abundance (log10)” value came to 0.00844.

As for “TGGCCGGCATGGACCGGTTTTCCCGGTAATCCGTATTTGGC (site TGTCCGGCTGC)”, the “recombinant UMI read abundance (log10)” value worked out at 0.

On to “TGGCCGGCATGGACCGGTTTTCCCGGTAATCCGTATTTGGC (site TTGCCGGCTGC)”, for which the “recombinant UMI read abundance (log10)” value came to 0.00854.

Consider “TGGCCGTCATGGACCGGTTTTCCCGGTAATCCGTATTTGAG (site TGGCCGTCTCT)”, for which the “recombinant UMI read abundance (log10)” value amounted to 0.297.

Consider “TGGCCTGCATGGACCGGTTTTCCCGGTAATCCGTATTTGGC (site TGGCCAGCTGC)”, for which the “recombinant UMI read abundance (log10)” value is 0.

Regarding “TGGCCTGCATGGACCGGTTTTCCCGGTAATCCGTATTTGGC (site TGGCCCGCTGC)”, the “recombinant UMI read abundance (log10)” value is 0.

On to “TGGCCTGCATGGACCGGTTTTCCCGGTAATCCGTATTTGGC (site TGGCCGGCTGC)”, for which the “recombinant UMI read abundance (log10)” value was 0.

In the case of “TGGCCTGCATGGACCGGTTTTCCCGGTAATCCGTATTTGGC (site TGGCCTGCTGC)”, the “recombinant UMI read abundance (log10)” value came to 0.

As for “TGGCTAGCATGGACCGGTTTTCCCGGTAATCCGTATTTGAA (site TAGCTAGCTTT)”, the “recombinant UMI read abundance (log10)” value is 0.00919.

On to “TGGCTAGCATGGACCGGTTTTCCCGGTAATCCGTATTTGAA (site TCGCTAGCTTT)”, for which the “recombinant UMI read abundance (log10)” value stood at 0.0168.

With “TGGCTAGCATGGACCGGTTTTCCCGGTAATCCGTATTTGAA (site TGGCTAGCTTT)”, the “recombinant UMI read abundance (log10)” value stood at 1.06.

As for “TGGCTAGCATGGACCGGTTTTCCCGGTAATCCGTATTTGAA (site TTGCTAGCTTT)”, the “recombinant UMI read abundance (log10)” value was 0.00374.

In the case of “TGGCTCTCATGGACCGGTTTTCCCGGTAATCCGTATTTGCA (site TGGCTCTCTTG)”, the “recombinant UMI read abundance (log10)” value was determined as 1.86.

“TGGGAACCATGGACCGGTTTTCCCGGTAATCCGTATTTGAT (site AGGGAACCTAT)”: the “recombinant UMI read abundance (log10)” value is 0.

“TGGGAACCATGGACCGGTTTTCCCGGTAATCCGTATTTGAT (site CGGGAACCTAT)”: the “recombinant UMI read abundance (log10)” value amounted to 0.00502.

On to “TGGGAACCATGGACCGGTTTTCCCGGTAATCCGTATTTGAT (site GGGGAACCTAT)”, for which the “recombinant UMI read abundance (log10)” value is 0.

In the case of “TGGGAACCATGGACCGGTTTTCCCGGTAATCCGTATTTGAT (site TGGGAACCTAT)”, the “recombinant UMI read abundance (log10)” value is 0.00982.

On to “TGGTCCACATGGACCGGTTTTCCCGGTAATCCGTATTTGTC (site TGGTCCACTGA)”, for which the “recombinant UMI read abundance (log10)” value was found to be 0.323.

Turning to “TGGTCCCCATGGACCGGTTTTCCCGGTAATCCGTATTTGTA (site TGATCCCCTTA)”, the “recombinant UMI read abundance (log10)” value was 0.

On to “TGGTCCCCATGGACCGGTTTTCCCGGTAATCCGTATTTGTA (site TGCTCCCCTTA)”, for which the “recombinant UMI read abundance (log10)” value came out at 0.176.

As to “TGGTCCCCATGGACCGGTTTTCCCGGTAATCCGTATTTGTA (site TGGTCCCCTTA)”, the “recombinant UMI read abundance (log10)” value is 0.0183.

As to “TGGTCCCCATGGACCGGTTTTCCCGGTAATCCGTATTTGTA (site TGTTCCCCTTA)”, the “recombinant UMI read abundance (log10)” value amounted to 0.00825.

“TGGTGCACATGGACCGGTTTTCCCGGTAATCCGTATTTGCC (site TGGTGCACTGG)”: the “recombinant UMI read abundance (log10)” value came out at 1.75.

As for “TGGTTCCCATGGACCGGTTTTCCCGGTAATCCGTATTTGTG (site AGGTTCCCTCA)”, the “recombinant UMI read abundance (log10)” value was 0.0205.

For “TGGTTCCCATGGACCGGTTTTCCCGGTAATCCGTATTTGTG (site CGGTTCCCTCA)”, the “recombinant UMI read abundance (log10)” value stood at 0.0117.

In the case of “TGGTTCCCATGGACCGGTTTTCCCGGTAATCCGTATTTGTG (site GGGTTCCCTCA)”, the “recombinant UMI read abundance (log10)” value came to 0.0263.
